Results reported in the supplement of paper PMC10307832.

Tests used:
Test in all cases: relative viability (nuclei count vs DMSO), 5 days (fraction); higher = more cells survive
[1] = compound: OCc1c[nH]c2ccccc12 [Indole-3-carbinol] + CC(=O)Nc1cccc(-n2c(=O)n(C3CC3)c(=O)c3c(Nc4ccc(I)cc4F)n(C)c(=O)c(C)c32)c1 [Trametinib] (partner 0.02 µM)
Summary of the method: (§1)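 Lung cancer cell lines, seeded in 1536-well plates, were treated the following day by pin tool with a single drug or with five library-drug doses (not always all listed) in √10 steps on top of a fixed anchor-drug dose. Cells were fixed and nuclei stained in one step after 5 days, and nuclei were counted. Relative viability is the nuclei count for treated wells divided by that for vehicle wells, reported as medians of duplicate plates.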

[2] = compound: OCc1c[nH]c2ccccc12 [Indole-3-carbinol] + CC1(C)CCC(c2ccc(Cl)cc2)=C(CN2CCN(c3ccc(C(=O)NS(=O)(=O)c4ccc(N[C@H](CCN5CCOCC5)CSc5ccccc5)c(S(=O)(=O)C(F)(F)F)c4)cc3)CC2)C1 [Navitoclax] (partner 0.5 µM)
Summary of the method: as §1

[3] = compound: OCc1c[nH]c2ccccc12 [Indole-3-carbinol] + COc1cc2c(Oc3ccc(NC(=O)C4(C(=O)Nc5ccc(F)cc5)CC4)cc3F)ccnc2cc1OCCCN1CCOCC1 [Foretinib] (partner 0.25 µM)
Summary of the method: as §1

[4] = compound: OCc1c[nH]c2ccccc12 [Indole-3-carbinol] + CS(=O)(=O)CCNCc1ccc(-c2ccc3ncnc(Nc4ccc(OCc5cccc(F)c5)c(Cl)c4)c3c2)o1 [Lapatinib] (partner 2 µM)
Summary of the method: as §1

[5] = compound: OCc1c[nH]c2ccccc12 [Indole-3-carbinol] + Cc1nc(Nc2ncc(C(=O)Nc3c(C)cccc3Cl)s2)cc(N2CCN(CCO)CC2)n1 [Dasatinib] (partner 0.075 µM)
Summary of the method: as §1

Cell Line | relative viability ([1]; first compound 0.253 µM) | relative viability ([1]; first compound 0.8 µM) | relative viability ([1]; first compound 2.53 µM) | relative viability ([1]; first compound 8 µM) | relative viability ([2]; first compound 0.253 µM) | relative viability ([2]; first compound 0.8 µM) | relative viability ([2]; first compound 2.53 µM) | relative viability ([2]; first compound 8 µM) | relative viability ([3]; first compound 0.253 µM) | relative viability ([3]; first compound 0.8 µM) | relative viability ([3]; first compound 2.53 µM) | relative viability ([3]; first compound 8 µM) | relative viability ([4]; first compound 0.253 µM) | relative viability ([4]; first compound 0.8 µM) | relative viability ([4]; first compound 2.53 µM) | relative viability ([4]; first compound 8 µM) | relative viability ([5]; first compound 0.253 µM) | relative viability ([5]; first compound 0.8 µM) | relative viability ([5]; first compound 2.53 µM) | relative viability ([5]; first compound 8 µM)
NCI-H23 | 0.315 | 0.319 | 0.43 | 0.414 | 0.853 | 0.843 | 0.856 | 0.762 | 1.03 | 1.01 | 1.04 | 1.02 | 1.09 | 1.1 | 1.06 | 0.9 | 0.793 | 1.01 | 0.936 | 0.675
NCI-H322M | 0.517 | 0.411 | 0.496 | 0.451 | 1.37 | 1.26 | 1.14 | 1.18 | 0.827 | 0.998 | 0.876 | 0.829 | 0.601 | 0.537 | 0.575 | 0.549 | 0.239 | 0.245 | 0.237 | 0.255
NCI-H460 | 0.119 | 0.151 | 0.11 | 0.129 | 1.2 | 1.46 | 1.08 | 1 | 1.03 | 1.02 | 1.02 | 0.992 | 1.09 | 0.993 | 0.983 | 0.9 | 0.451 | 0.59 | 0.499 | 0.444
NCI-H520 | 0.702 | 0.575 | 0.741 | 0.772 | 1.12 | 0.999 | 1.14 | 1.12 | 0.863 | 0.774 | 0.705 | 0.62 | 0.899 | 0.838 | 0.868 | 0.742 | 0.177 | 0.245 | 0.242 | 0.183
NCI-H596 | 0.779 | 0.829 | 0.809 | 0.762 | 0.977 | 1.02 | 0.921 | 0.826 | 0.921 | 0.885 | 1.05 | 0.791 | 1.05 | 0.779 | 0.936 | 0.985 | 0.649 | 0.665 | 0.659 | 0.595
NCI-H647 | 0.562 | 0.405 | 0.508 | 0.524 | 1.16 | – | 1.09 | 1.01 | 1.22 | – | 1.22 | 1.01 | 1.24 | 0.904 | 0.87 | 0.969 | 0.18 | – | 0.222 | 0.167
NCI-H727 | 0.372 | 0.393 | 0.412 | 0.392 | 0.359 | 0.355 | 0.364 | 0.497 | 0.744 | 0.891 | 1.05 | 0.886 | 0.75 | 0.699 | 0.782 | 0.769 | 0.365 | 0.408 | 0.294 | 0.306
NCI-H838 | 0.593 | 0.499 | 0.525 | 0.495 | 1.18 | 1.14 | 1.18 | 1.08 | 0.997 | 0.985 | 1.01 | 1.02 | 1.09 | 0.805 | 0.959 | 0.949 | 0.27 | 0.31 | 0.297 | 0.295
NCI-H1355 | 0.43 | 0.343 | 0.386 | 0.415 | 0.967 | 0.919 | 0.858 | 0.896 | 0.961 | 1.01 | 0.998 | 0.978 | 1.08 | 0.981 | 0.975 | 0.887 | 0.677 | 0.886 | 0.672 | 0.737
NCI-H1395 | 1 | 1.01 | 1.08 | 0.995 | 1.23 | 1.16 | 1.19 | 1.08 | 0.818 | 1.1 | 0.97 | 0.914 | 1.04 | 0.873 | 0.931 | 0.829 | 0.386 | 0.392 | 0.458 | 0.413
NCI-H1437 | 0.549 | 0.558 | 0.459 | 0.458 | 1.15 | 1.14 | 1.18 | 1.03 | 1.29 | 1.34 | 1.24 | 1.2 | 0.818 | 0.868 | 0.781 | 0.761 | 0.386 | 0.445 | 0.35 | 0.541
NCI-H1650 | 0.565 | 0.563 | 0.561 | 0.498 | 1.32 | 1.16 | 1.26 | 1.1 | 0.987 | – | 1.08 | 1.3 | 0.892 | 0.561 | 0.875 | 0.716 | 0.335 | – | 0.324 | 0.304
NCI-H1651 | 0.819 | 0.787 | 0.823 | 0.822 | 1.03 | 1.07 | 1.05 | 0.925 | 0.828 | 0.853 | 0.857 | 0.737 | 0.619 | 0.69 | 0.921 | 0.704 | 0.412 | 0.387 | 0.443 | 0.368
NCI-H1666 | 0.828 | 0.85 | 0.939 | 0.788 | 0.896 | 1.05 | 0.973 | 0.893 | 0.932 | 1 | 1.01 | 0.94 | 0.76 | 0.584 | 0.581 | 0.7 | 0.898 | 0.835 | 0.886 | 0.805
NCI-H1734 | 0.676 | 0.762 | 0.617 | 0.651 | 0.899 | 0.876 | 0.801 | 0.727 | 0.91 | 0.802 | 0.887 | 0.674 | 0.979 | 1.02 | 1.04 | 0.955 | 0.441 | 0.458 | 0.542 | 0.399
NCI-H1755 | 0.784 | 0.737 | 0.815 | 0.733 | 1.02 | 1.01 | 0.975 | 0.984 | 0.982 | 0.953 | 0.895 | 0.895 | 1.06 | 0.978 | 1.07 | 1.03 | 0.441 | 0.456 | 0.706 | 0.364
